Assay results reported in patent publication US5064862A, “Anticonvulsant method and formulations” (priority 1990, dated 1991).
Where “and” joins values, the source holds several entries; their conditions need not be identical. Equal values may be shown once. Entries after “also recorded” stand apart in the source; their conditions may differ. Read-outs that look alike come from different tables or passages of the source.

Columns and labels:
[1] = in vivo; conditions: mouse, ip
Method: (§1) All tests were performed using male Carworth Farms number-one mice. Test solutions of all compounds were prepared in 30% polyethylene glycol 400 and animals were dosed intraperitoneally (ip) at 30 minutes prior to testing.
(§2) Neurological deficit was measured in mice using the rotorod test. The dosed animal was placed on a 1-inch diameter knurled plastic rod rotating at 6 rpm. Neurologic toxicity was defined as the failure of the animal to remain on the rod for 1 minute. The median anticonvulsant protency (ED50) and toxicity (TD50) were determined by the graphical method.

[2] = tested on: maximal electroshock seizures (MES);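 as to MES PI (protective index = TD50/ED50): seizures induced by corneal electroshock, 60-cycle alternating current at 50 mA for 0.2 s, protection means no hind limb tonic extension, scored right after the shock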;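 as to anti-MES / anticonvulsant activity (in words): seizures induced by corneal electroshock, 60-cycle alternating current at 50 mA for 0.2 s, protection means no hind limb tonic extension, scored right after the shock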
Method: The preliminary screening was done at doses of the test compounds from 30 mg/kg up to 600 mg/kg adminstered ip in mice and evaluated against maximal electroshock seizures (MES) and subcutaneous Metrazole (scMet) induced convulsions and in the rotorod test for neurologic deficit.
as §1
Maximal electroshock seizures (MES) were elicited with a 60 cycle alternating current of 50 mA intensity delivered for 0.2 second via corneal electrodes. A drop of 0.9% saline was instilled in the eye prior to application of electrodes. The animals were examined and evaluated immediately after the electroshock for the occurrence of clonic, flexor tonic, or extensor tonic convulsions or death. Abolition of the hind limb tonic extension component of the seizure was defined as protection in the MES test. The ED50 was determined for the test compound as the dose which inhibited the occurrence of hind limb tonic convulsions in one half of the animals immediately after the electroshock as determined by graphical interpolation.
as §2

[3] = tested on: subcutaneous Metrazole (scMet) induced convulsions; assay: Subcutaneous pentylenetetrazole (Metrazol) seizure threshold test (scMet) in mice, ip; conditions: for ED50 / minimal effective dose: Mus musculus; for ED50: read-out: scMET ED50
Method: Protection in this test was defined as a failure to observe a single episode of clonic spasms of at least 5 second duration during a 30 minute period following adminstration of the test compound.

[4] = tested on: neurologic deficit (rotorod); conditions: mouse, in vivo
Method: as §1, §2

[5] = man; cited from earlier work
[6] = in vivo; conditions: mouse, ip; remark: listed apart in the source
Method: as §1

[7] = tested on: neurologic deficit (rotorod); assay: Rotorod test for neurologic deficit in mice, ip
Method: as §1, §2

[8] = tested on: convulsions induced by sc strychnine; assay: sc strychnine induced seizures in mice; format: in vivo; conditions: doses up to 30 mg/kg
[9] = tested on: convulsions induced by sc picrotoxin; assay: sc picrotoxin induced seizures in mice; format: in vivo; conditions: doses up to 30 mg/kg
[10] = tested on: convulsions induced by sc bicuculline; assay: sc bicuculline induced seizures in mice; format: in vivo; conditions: doses up to 30 mg/kg
[11] = tested on: maximal electroshock seizures (MES); conditions: Clark et al, ip, mice; cited from earlier work;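 as to MES PI (protective index = TD50/ED50): seizures induced by corneal electroshock, 60-cycle alternating current at 50 mA for 0.2 s, protection means no hind limb tonic extension, scored right after the shock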;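 as to anti-MES / anticonvulsant activity (in words): seizures induced by corneal electroshock, 60-cycle alternating current at 50 mA for 0.2 s, protection means no hind limb tonic extension, scored right after the shock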
[12] = tested on: subcutaneous Metrazole (scMet) induced convulsions; conditions: Clark et al, ip, mice; cited from earlier work
[13] = ip, 0.5 h, read-out: scMet activity, 30 min
[14] = ip, 4 h, read-out: scMet activity, 4 hrs

Q: For `Cc1cccc(C)c1NC(=O)c1cccc(N)c1` [II-1, 3-amino-N-(2,6-dimethylphenyl) benzamide], which TD50 [1] is on record?
A: The TD50 was 285 mg/kg.

Q: And the “MES ED50” value ([2]; ip, mice)?
A: Its value is 13.48 mg/kg.

Q: What about the “MES PI (protective index = TD50/ED50)” value ([2]; mouse, in vivo, ip) of the same molecule?
A: The value was 21.11.

Q: What does the source list for `CCC1(c2ccccc2)C(=O)NC(=O)NC1=O` [Phenobarbital, reference compound]?
A: lethal dose (LD50) (ip, mice): 264.70 mg/kg; MES ED50 ([2]; ip, mice): 21.78 mg/kg; ED50 ([3]; ip): 13.2 mg/kg

Q: With `Cc1ccc(NC(=O)c2ccc(N)cc2)c(C)c1` [Example 7] as the molecule, how does the “anti-MES / anticonvulsant activity (in words)” value ([2]; ip, mice) read?
A: The value was “good anti-MES activity”.

Q: And the minimal effective dose [3, 13]?
A: The minimal effective dose was 600 mg/kg.

Q: What about the minimal effective dose [3, 14] of the same molecule?
A: Its minimal effective dose is greater than 600 mg/kg.

Q: Which “MES ED50” value ([2]; ip, mice) does the source give for `Cc1cccc(NC(=O)c2ccc(N)cc2)c1` [Example 4] here?
A: The value was 46.96 mg/kg.

Q: What about the “difference between the dosages producing toxicity and anti-MES activity” value ([2]; ip, mice) of the same molecule?
A: Its value is “appreciable difference between the dosages producing toxicity and anti-MES activity”.

Q: And the “MES PI (protective index = TD50/ED50)” value ([2]; mouse, in vivo, ip)?
A: Its value is 3.03.

Q: What about the TD50 ([4]; ip) of the same molecule?
A: Its TD50 is 142.51 mg/kg.

Q: And the minimal effective dose [3, 13]?
A: Its minimal effective dose is 300 mg/kg.

Q: What about the minimal effective dose [3, 14] of the same molecule?
A: The minimal effective dose was greater than 600 mg/kg.

Q: What about the ED50 ([3]; ip) of the same molecule?
A: The ED50 was 87.9 mg/kg.

Q: And the “scMET PI (protective index = TD50/ED50)” value ([3]; ip, mice)?
A: The value was 1.62.

Q: Which “plasma level at which ataxia is obvious” value [5] does the source give for `O=C1NC(=O)C(c2ccccc2)(c2ccccc2)N1` [Phenytoin] here?
A: The value was 30000 ng/mL.

Q: And the “plasma level at which lethargy is apparent” value [5]?
A: Its value is “about 40 mcg/ml”.

Q: And the “plasma level at which nystagmus is seen” value [5]?
A: Its value is “around 20 mcg/ml”.

Q: What about the “plasma level controlling seizures” value [5] of the same molecule?
A: Its value is no less than 10 µg/mL.

Q: With `Cc1cccc(C)c1NC(=O)c1ccc(N)cc1` [Example 1, 4-Amino-N-(2,6-dimethylphenyl) benzamide] as the molecule, how does the LD50 [6] read?
A: The LD50 was 161 mg/kg.

Q: And the TD50 [6]?
A: The TD50 was 43.8 mg/kg.

Q: What about the “toxicity (in words)” value [7] of the same molecule?
A: Its value is “most toxic”.

Q: And the “additional toxicity at higher doses” value (2×TD50 and 4×TD50, ip, mice)?
A: Its value is “muscle relaxation, loss of righting reflex, decreased respiration with cyanosis and ptosis”.

Q: And the “toxicity induced by the TD50 dose” value (TD50 dose, ip, mice)?
A: Its value is “decreased motor activity, spasticity, ataxia, rotorod toxicity and sedation”.

Q: And the “time after which all symptoms had disappeared” value (mouse, in vivo, ip)?
A: Its value is no more than 2 h.

Q: And the “effect against convulsions induced by sc strychnine” value [8]?
A: The value was “ineffective”.

Q: What about the “effect against convulsions induced by sc picrotoxin” value [9] of the same molecule?
A: Its value is “ineffective”.

Q: What about the “effect against convulsions induced by sc bicuculline” value [10] of the same molecule?
A: The value was “ineffective”.

Q: And the “animals with anti-MES activity at 5 mg/kg” value ([2]; 5 mg/kg, 30 minutes, ip)?
A: Its value is 4 of 4.

Q: And the “animals with anti-MES activity at 30 mg/kg” value ([2]; 30 mg/kg, ip, mice)?
A: Its value is “all aminals”.

Q: And the “anti-MES activity, active dose, 4 hours” value ([2]; 4 hours after ip administration, mice)?
A: The value was 30 mg/kg.

Q: And the “MES ED50” value ([2]; ip, mice)?
A: The value was 2.60 mg/kg and 2.6 mg/kg.

Q: What about the “anti-MES / anticonvulsant activity (in words)” value ([2]; ip, mice) of the same molecule?
A: Its value is “good anti-MES activity; also recorded: most potent amide of PABA observed thus far; also recorded: greater potency than any of the prototype anticonvulsant”.

Q: And the “increase in anti-MES activity over compound 14” value ([2]; mice)?
A: Its value is roughly 10 fold.

Q: What about the “time of peak effect for anti-MES activity” value ([2]; mice) of the same molecule?
A: Its value is 30 min.

Q: And the “PI values (in words)” value ([2]; mouse, in vivo, ip)?
A: The value was “higher PI values”.

Q: And the “animals with rotorod toxicity at 20 mg/kg” value [4]?
A: Its value is 3 of 4.

Q: What about the “animals with rotorod toxicity at 30 mg/kg” value [4] of the same molecule?
A: The value was “all aminals”.

Q: What about the “increase in toxicity over compound 14” value [4] of the same molecule?
A: Its value is roughly 10 fold.

Q: And the “time of peak effect for toxicity” value [4]?
A: The value was 30 min.

Q: And the “rotorod toxicity, dose, 30 min” value ([4]; ip, 30 min)?
A: Its value is 30 mg/kg.

Q: What about the “rotorod toxicity, dose, 4 hours” value ([4]; ip, 240 min) of the same molecule?
A: The value was 100 mg/kg.

Q: What about the “anti-scMet activity (in words), 30 min” value ([3]; 30 minutes, ip, mice) of the same molecule?
A: The value was “No anti-scMet activity”.

Q: And the “anti-scMet activity (in words), 4 hours” value ([3]; 4 hours, ip, mice)?
A: Its value is “No anti-scMet activity”.

Q: And the minimal effective dose [3, 13]?
A: Its minimal effective dose is greater than 300 mg/kg.

Q: And the minimal effective dose [3, 14]?
A: Its minimal effective dose is greater than 300 mg/kg.

Q: And the “effect against convulsions induced by sc metrazole” value ([3]; doses up to 30 mg/kg, mice)?
A: Its value is “ineffective”.

Q: What about the “anti-scMet activity (in words)” value ([3]; ip, mice) of the same molecule?
A: Its value is “absent”.

Q: Which results are given for `Cc1ccccc1NC(=O)c1ccc(N)cc1` [Example 3, 4-amino-N-(2-methylphenyl) benzamide]?
A: LD50 [6]: < 600 mg/kg; minimal effective dose [3, 13]: > 300 mg/kg; minimal effective dose [3, 14]: > 300 mg/kg

Q: With `CCCC(CCC)C(=O)O` [Valproic Acid, reference compound] as the molecule, how does the LD50 [6] read?
A: Its LD50 is 1100 mg/kg.

Q: What about the ED50 ([3]; ip) of the same molecule?
A: The ED50 was 149 mg/kg.

Q: What does the source list for `CC(NC(=O)c1ccc(N)cc1)c1ccccc1` (stereo not shown) [Compound 14]?
A: MES ED50 [11]: 18.02 mg/kg; MES PI (TD50/ED50) [11]: 9.50; scMET ED50 [12]: 41.78 mg/kg; scMET PI (TD50/ED50) [12]: 4.10; lethal dose (LD50) (ip, mice): 718.18 mg/kg; safety ratio (SR=TD3/ED97), MES test ([2]; mouse, in vivo, ip): 3.5
